Experiments:
Assay type in all cases: toxicity, cell-based
[1] = system: HEK-293T; assay: Incucyte cell viability with HEK293T; conditions: human, 10 µM, compound concentration 10 uM
[2] = system: Fibroblast; assay: Incucyte cell viability with human fibroblast; conditions: 10 µM, compound concentration 10 uM
[3] = system: U2OS; assay: Incucyte cell viability with U2OS; conditions: human, 10 µM, compound concentration 10 uM
[4] = 0 h, replicate number 1, timepoint 0 hours
[5] = 0 h, replicate number 2, timepoint 0 hours
[6] = 6 h, replicate number 1, timepoint 6 hours
[7] = 6 h, replicate number 2, timepoint 6 hours
[8] = 12 h, replicate number 1, timepoint 12 hours
[9] = 12 h, replicate number 2, timepoint 12 hours
[10] = 18 h, replicate number 1, timepoint 18 hours
[11] = 18 h, replicate number 2, timepoint 18 hours
[12] = 24 h, replicate number 1, timepoint 24 hours
[13] = 24 h, replicate number 2, timepoint 24 hours
Further: unitless GR value; below 1 slowed growth and below 0 cell loss.

Row | Compound | Growth Rate [1, 4] | Growth Rate [1, 5] | Growth Rate [1, 6] | Growth Rate [1, 7] | Growth Rate [1, 8] | Growth Rate [1, 9] | Growth Rate [1, 10] | Growth Rate [1, 11] | Growth Rate [1, 12] | Growth Rate [2, 5] | Growth Rate [2, 6] | Growth Rate [3, 5] | Growth Rate [3, 6] | Growth Rate [3, 8] | Growth Rate [3, 10] | Growth Rate [3, 11] | Growth Rate [2, 9] | Growth Rate [2, 10] | Growth Rate [2, 12] | Growth Rate [3, 4] | other results
1 | O=C1NC(Nc2ccccc2)=N/C1=C\c1ccc2c(c1)OCO2 | 0.84 | 0.94 | 0.37 | 0.13 | 0.75 | 0.51 | 0.75 | 0.58 | 0.82 | 0.56 | 0.26 | -1 | -0.77 | 0.12 | 0.39 | 0.59 |  |  |  |  | Growth Rate [1, 13]: 0.78; Growth Rate [2, 8]: 0.74; Growth Rate [3, 7]: 0.8; Growth Rate [3, 9]: 0.66; Growth Rate [3, 12]: 0.59; Growth Rate [3, 13]: 0.63
2 | C(#Cc1cccc(CN2CCOCC2)c1)CCN1CCCCC1 | 0.61 | 0.63 |  |  | 0.91 |  | 0.78 |  | 0.73 |  | 0.03 | -1 |  |  |  |  | 0.09 | 0.39 | 0.28 | 0.35 | Growth Rate [2, 7]: 0.09; Growth Rate [2, 8]: 0.14; Growth Rate [2, 11]: 0.23; Growth Rate [2, 13]: 0.26
3 | CCc1cc2c(cc1-c1cccc(S(=O)(=O)F)c1)C(C)(C)c1[nH]c3cc(C#N)ccc3c1C2=O | 0.26 | 0.5 | 0.46 | 0.37 | 0.99 | 0.6 | 0.78 | 0.62 | 1 | 0.22 | 0.03 | -1 | -0.03 | 0.61 | 0.58 | 0.78 | 0.17 | -0.21 | -0.18 | 0.95 | Growth Rate [2, 7]: 0.66; Growth Rate [2, 8]: -0.15; Growth Rate [2, 11]: 0.47; Growth Rate [2, 13]: 0.58; Growth Rate [3, 7]: 0.92; Growth Rate [3, 9]: 0.81; Growth Rate [3, 13]: 0.78
4 | Cl.FC(F)(F)c1ccc(N2CCNCC2)nc1Cl |  | 0.55 | 0.75 | 0.92 | 0.89 | 0.95 | 0.79 | 0.89 | 0.75 | 0.43 | 0.27 | 0.39 | 0.77 | 0.84 | 0.93 | 0.87 |  | 0.46 | 0.59 |  | Growth Rate [1, 13]: 0.82; Growth Rate [2, 4]: 0.87; Growth Rate [2, 8]: 0.59; Growth Rate [3, 7]: 0.86; Growth Rate [3, 9]: 0.78; Growth Rate [3, 13]: 0.96
5 | CCOc1ccc(Cc2nc3cc(C(=O)N(CC)CC)ccc3n2CC2CCCCC2)cc1 | 0.75 | 0.57 |  | 0.53 | 0.75 |  | 0.86 |  | 0.93 |  |  | -1 |  |  |  | 1 | 0.58 |  |  | -0.21 | Growth Rate [2, 4]: 0.96; Growth Rate [2, 7]: 0.61; Growth Rate [2, 11]: 0.98
6 | O=C([O-])[C@H]1O[C@H](OP(=O)([O-])OP(=O)([O-])OC[C@H]2O[C@@H](n3ccc(=O)[nH]c3=O)[C@H](O)[C@@H]2O)[C@H](O)[C@@H](O)[C@@H]1O.[Na+].[Na+].[Na+] | 0.81 | -0.02 | 0.43 |  | 0.65 |  | 0.64 |  | 0.84 | 0.57 |  | 0.71 | 0.46 | 0.9 | 0.9 |  |  | 0.88 | 0.93 | 0.32 | Growth Rate [1, 13]: 0.91
7 | CCOc1nc2cccc(C(=O)O)c2n1Cc1ccc(-c2ccccc2-c2nnn[nH]2)cc1 | 0.86 | 0.52 |  | 0.94 |  |  |  |  |  | 0.54 | 0.77 |  |  | 0.85 | 0.58 |  | 0.56 | 0.8 | 0.89 |  | Growth Rate [2, 7]: 0.71; Growth Rate [2, 13]: 0.45; Growth Rate [3, 9]: 0.99
8 | O=C1COc2nccc(-c3ccccc3F)c2CN1Cc1cc(C(F)(F)F)cc(C(F)(F)F)c1 |  |  |  | 0.77 |  | 0.89 | 0.98 | 0.88 |  |  | 0.17 |  |  |  | 0.97 | 0.94 |  | 0.58 | 0.73 | -0.7 | Growth Rate [2, 8]: 0.8; Growth Rate [3, 9]: 0.96; Growth Rate [3, 12]: 0.88; Growth Rate [3, 13]: 0.93
9 | Cc1ccccc1N1CCN(S(=O)(=O)C[C@]23CC[C@H](C[C@@H]2NC(=O)[C@@H](N)CCS(C)(=O)=O)C3(C)C)CC1.Cl | 0.81 | 0.34 | 0.8 |  | 0.81 | 0.75 | 0.84 | 0.92 | 0.97 | 0.56 |  | -0.25 | 0.91 | 0.85 | 0.77 |  | 0.8 |  |  | -0.8 | Growth Rate [1, 13]: 0.93; Growth Rate [2, 4]: 0.33; Growth Rate [2, 11]: 0.91; Growth Rate [2, 13]: 0.76; Growth Rate [3, 12]: 0.89; Growth Rate [3, 13]: 1
10 | CC(C)[C@H](C(=O)Nc1ccc(C(=O)NO)cc1)c1ccccc1 [AR-42] | 0.33 | 0 |  |  | 0.65 | 0.04 | 0.28 |  | 0.18 | 0 |  | 0.37 | 0.34 | 0.5 | 0.3 | 0.56 |  |  |  | -0.37 | Growth Rate [1, 13]: 0.23; Growth Rate [2, 4]: 0.24; Growth Rate [3, 7]: 0.99; Growth Rate [3, 9]: 0.71; Growth Rate [3, 12]: 0.39; Growth Rate [3, 13]: 0.42
11 | O=C(NCCN1CCC(n2c(=O)[nH]c3cc(Cl)ccc32)CC1)c1ccc(F)cc1 [HALOPEMIDE] |  |  | -0.01 | 0.96 | 0.56 | 0.68 | 0.67 |  | 0.5 |  | -0.01 | 0.14 |  |  |  | 1 | 0.66 | -0.17 | -0.39 | 0.7 | Growth Rate [2, 7]: 0.12; Growth Rate [2, 8]: -0.23
12 | COc1cc2nc(N3CCN(C(=O)C4CCCO4)CC3)nc(N)c2cc1OC.Cl.O.O (stereo not given) [TERAZOSIN HYDROCHLORIDE] | 0.72 | 0.29 | 0.91 |  | 0.69 | 0.83 | 0.78 | 0.79 | 0.87 | 0.43 |  | 0.74 | 0.56 | 0.73 | 0.88 |  | 0.84 |  |  |  | Growth Rate [1, 13]: 0.79; Growth Rate [2, 4]: 0.68; Growth Rate [2, 7]: 0.32; Growth Rate [2, 11]: 0.8; Growth Rate [2, 13]: 0.57; Growth Rate [3, 7]: 0.76; Growth Rate [3, 12]: 0.99
13 | COc1ccc2cc(S(=O)(=O)N[C@H](CC(=O)N[C@H](Cc3ccc(CN4[C@H](C)CCC[C@@H]4C)cc3)C(=O)N(C)C(C)C)c3ccc4c(c3)OCO4)ccc2c1.Cl |  |  | -0.08 |  | 0.01 | 0.35 | 0.02 | 0.41 | 0.01 | -0.08 | -0.65 | -0.35 | 0.84 | 0.63 | 0.67 | 0.57 | -0.1 | -0.65 | -0.57 |  | Growth Rate [1, 13]: 0.42; Growth Rate [2, 7]: -0.35; Growth Rate [2, 8]: -0.6; Growth Rate [2, 11]: -0.15; Growth Rate [2, 13]: -0.02; Growth Rate [3, 9]: 0.61; Growth Rate [3, 12]: 0.69; Growth Rate [3, 13]: 0.53
14 | O=C1NC(=O)C(c2ccccc2[N+](=O)[O-])=C1Nc1ccc(O)c(Cl)c1 | 0.17 | 0.13 |  |  |  |  |  |  |  | 0.11 |  | -1 |  | 0.95 |  |  |  |  |  | 0.02 | Growth Rate [2, 4]: -0.16; Growth Rate [3, 12]: 0.84

From ChEMBL document CHEMBL5058564, “EUbOPEN Chemogenomics Library 2 (Incucyte)” (2022)
